Assay results as given in patent publication US6150359A, “Naphthyridinones for inhibiting protein tyrosine kinase and cell cycle kinase mediated cellular proliferation” (Warner-Lambert Company, priority 2000, dated 2000).

Key:
cdk2/cyclinA = cdk2/cyclinA (Homo sapiens, UniProt P24941); assay: Cyclin-Dependent Kinase Assay, cdk2/cyclinA; type: biochemical; details: 12 mM ATP, retinoblastoma substrate
Protocol: (§1) Cyclin-Dependent Kinase Assays (cdk2/cyclinE, cdk2/cyclinA, cdkl/cyclinB)
(§2) All components except the ATP were added to the wells, and the plate was placed on a plate mixer for 2 minutes. The reaction was begun by addition of [^32 P]ATP, and the plate was incubated at 25° C. for 15 minutes. The reaction was terminated by addition of 0.1 mL of 20% TCA. The plate was kept at 4° C. for least 1 hour to allow the substrate to precipitate. The wells were then washed 5 times with 0.2 mL of 10% TCA and ^32 P incorporation determined with a beta plate counter (Wallace Inc., Gaithersburg, Md.).

[1] = target: T1, PDGFr (mouse PDGF-β receptor tyrosine kinase) (Mus musculus, UniProt P05622); assay: PDGFr tyrosine kinase assay, 32P incorporation into glutamate-tyrosine copolymer; type: biochemical; details: 50 μM ATP
T1 construct: PCR primers are designed to amplify a fragment of DNA that codes for the intracellular tyrosine kinase domain; made in house; host or cells: Sf9 insect cells (baculovirus), cell lysate
Protocol: (§3) Platelet Derived Growth Factor Receptor (PDGFr) and Fibroblast Growth Factor Receptor (FGFr). Full length cDNAs for the mouse PDGF-β and human FGF-1 (flg) receptor tyrosine kinases were obtained from J. Escobedo and are prepared as described in J. Biol. Chem., 1991;262:1482-1487. PCR primers are designed to amplify a fragment of DNA that codes for the intracellular tyrosine kinase domain. The fragment is melded into a baculovirus vector, cotransfected with AcMNPV DNA, and the recombinant virus isolated. SF9 insect cells are infected with the virus to overexpress the protein, and the cell lysate is used for the assay.
(§4) PDGFr and FGFr. […] Briefly, to each well is added 82.5 μL of incubation buffer containing 25 mM Hepes (pH 7.0), 150 mM NaCl, 0.1% Triton X-100, 0.2 mM PMSF, 0.2 mM sodium vanadate, 10 mM manganese chloride, and 750 μg/mL of poly (4:1) glutamate-tyrosine followed by 2.5 μL of inhibitor and 5 μL of enzyme lysate (7.5 μg/μL FGFR-TK or 6.0 μg/μL PDGFR-TK) to initiate the reaction. Following a 10 minute incubation at 25° C., 10 μL of [γ^32 P]ATP (0.4 μCi plus 50 μM ATP) is added to each well, and samples are incubated for an additional 10 minutes at 25° C. The reaction is terminated by the addition of 100 μL of 30% trichloroacetic acid (TCA) containing 20 mM sodium pyrophosphate and precipitation of material onto glass fiber filter mats (Wallac). […] Nonspecific activity is defined as radioactivity retained on the filters following incubation of samples with buffer alone; (no enzyme). Specific enzymatic activity is defined as total activity (enzyme plus buffer) minus nonspecific activity.

cdk4/cyclinD = cdk4/cyclinD (Homo sapiens, UniProt P11802); assay: Cyclin-Dependent Kinase 4 (cdk4/cyclinD) Assay; type: biochemical; details: 25 μM ATP, retinoblastoma substrate
Protocol: Cyclin-Dependent Kinase 4 (cdk4/cyclinD) Assay
Enzyme assays for IC50 determinations and kinetic evaluation were performed in 96-well filter plates (Millipore MADVN6550). The total volume was 0.1 mL containing a final concentration of 20 mM TRIS (tris[hydroxymethyl]aminomethane), at pH 7.4, 50 mM NaCl, 1 mM dithiothreitol, 10 mM MgCl2, 25 μM ATP containing 0.25 μCi of [^32 P]ATP, 20 ng of cdk4/cyclinD, 1 μg of retinoblastoma, and appropriate dilutions of a compound of the present invention. All components except the ATP were added to the wells, and the plate was placed on a plate mixer for 2 minutes. The reaction was started by adding [^32 P]ATP and the plate was incubated at 25° C. for 15 minutes. The reaction was terminated by addition of 0.1 mL of 20% trichloroacetic acid (TCA). The plate was kept at 4° C. for at least 1 hour to allow the substrate to precipitate. The wells were then washed 5 times with 0.2 mL of 10% TCA and ^32 P incorporation was determined with a beta plate counter (Wallace Inc., Gaithersburg, Md.).

cdk1/cyclinB = cdk1/cyclinB (Homo sapiens, UniProt P06493); assay: Cyclin-Dependent Kinase Assay, cdk1/cyclinB; type: biochemical; details: 12 mM ATP, retinoblastoma substrate
Protocol: as §1, §2

cdk2/cyclinE = cdk2/cyclinE (Homo sapiens, UniProt P24941); assay: Cyclin-Dependent Kinase Assay, cdk2/cyclinE; type: biochemical; details: retinoblastoma substrate
Protocol: as §1, §2

[2] = target: T2, FGFr (human FGF-1 (flg) receptor tyrosine kinase) (Homo sapiens, UniProt P11362); assay: FGFr tyrosine kinase assay, 32P incorporation into glutamate-tyrosine copolymer; type: biochemical; details: 50 μM ATP; read-out: FGFr IC50
T2 construct: PCR primers are designed to amplify a fragment of DNA that codes for the intracellular tyrosine kinase domain; made in house; host or cells: Sf9 insect cells (baculovirus), cell lysate
Protocol: as §3, §4

c-Src = target: T3, c-Src (Homo sapiens, UniProt P12931); assay: c-Src kinase assay, 32P incorporation into polyglutamate-tyrosine; type: biochemical; details: 5 μM ATP
T3 construct: made in house; host or cells: baculovirus infected insect cells
Protocol: Other Kinases. c-Src kinase is purified from baculovirus infected insect cell lysates using an antipeptide monoclonal antibody directed against the N-terminal 2-17 amino acids as described previously by Fry, et al., Anticancer Drug Design, 1994;9:331-351. Protein kinase C (PKC.) is obtained as a rat brain preparation from Promega.
c-Src. The antibody, covalently linked to 0.65-μm latex beads, is added to a suspension of insect cell lysis buffer comprised of 150 mM NaCl, 50 mM Tris pH 7.5, 1 mM DTT, 1% NP-40, 2 mM EGTA, 1 mM sodium vanadate, 1 mM PMSF, 1 μg/mL each of leupeptin, pepstatin, and aprotinin. Insect cell lysate containing the c-Src protein is incubated with these beads for 3 to 4 hours at 4° C. with rotation. At the end of the lysate incubation, the beads are rinsed three times in lysis buffer, resuspended in lysis buffer containing 10% glycerol, and frozen. These latex beads are thawed, rinsed three times in assay buffer which is comprised of 40 mM tris pH 7.5, 5 mM magnesium chloride, and suspended in the same buffer. In a Millipore 96-well plate with a 0.65 μm polyvinylidine membrane bottom are added the reaction components: 10-μL c-Src beads, 10 μL of 2.5 mg/mL polyglutamate-tyrosine substrate, 5 μM ATP containing 0.2 μCi labeled ^32 P-ATP, 5 μL DMSO containing inhibitors or as a solvent control, and buffer to make the final volume 125 μL. The reaction is started at room temperature by addition of the ATP and quenched 10 minutes later by the addition of 125 μL of 30% TCA, 0.1 M sodium pyrophosphate for 15 minutes on ice. The plate is then filtered and the wells washed with two 250-μL aliquots of 15% TCA, 0.1 M pyrophosphate. The filters are punched, counted in a liquid scintillation counter, and the data examined for inhibitory activity in comparison to a known inhibitor such as erbstatin. The method is described more fully in J. Med. Chem., 1994;37:598-609.

insulin receptor (INSr) = target: T4, insulin receptor (INSr) (Homo sapiens, UniProt P06213); assay: Insulin receptor (INSr) kinase assay; type: biochemical; details: 10 mM manganese chloride
T4 construct: An assay using the intracellular kinase domains of insulin receptor (INSr)
Protocol: EGFr. Enzyme assays for IC50 determinations are performed in 96-well filter plates (Millipore MADVN6550). The total volume is 0.1 mL containing 20 mM Hepes, pH 7.4, 50 μM sodium vanadate, 40 mM magnesium chloride, 10 μM ATP containing 0.5 μCi of [^32 P]ATP, 20 μg of polyglutamic acid/tyrosine (Sigma Chemical Co., St. Louis, Mo.), 10 ng of EGF receptor tyrosine kinase and appropriate dilutions of inhibitor. All components except the ATP are added to the well, and the plate is incubated with shaking for 10 minutes at 25° C. The reaction is started by adding [^32 P]ATP, and the plate is incubated at 25° C. for 10 minutes. The reaction is terminated by addition of 0.1 mL of 20% trichloroacetic acid (TCA). The plate is kept at 4° C. for at least 15 minutes to allow the substrate to precipitate. The wells are then washed five times with 0.2 mL of 10% TCA, and ^32 P incorporation is determined with a Wallac beta plate counter.
Other Kinases. An assay using the intracellular kinase domains of insulin receptor (INSr) is performed as described for the EGF receptor except that 10 mM manganese chloride is included in the reaction. The PKC assay is performed as previously described by Martiny-Baron, et al., J. Biol. Chem., 1993;268:9194-9197.

human tumor cell lines = details: approximately 60 NCI human tumor cell lines; cited from earlier work
cdk2 = details: cited from earlier work
[3] = system: breast and lung cancer cells; details: several types of breast and lung cancer cells; cited from earlier work
cdk4 = details: cited from earlier work

Chain of cdk4/cyclinD (P11802 whole entry, species assumed): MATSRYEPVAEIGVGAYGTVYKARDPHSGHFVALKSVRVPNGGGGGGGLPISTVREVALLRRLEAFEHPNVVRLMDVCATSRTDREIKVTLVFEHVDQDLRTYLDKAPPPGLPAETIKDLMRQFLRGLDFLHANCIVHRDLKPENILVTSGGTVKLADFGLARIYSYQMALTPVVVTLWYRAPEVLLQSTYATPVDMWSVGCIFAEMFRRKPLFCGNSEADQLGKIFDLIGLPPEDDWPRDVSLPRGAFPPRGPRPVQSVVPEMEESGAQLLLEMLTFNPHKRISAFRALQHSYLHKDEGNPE
Chain of cdk4/cyclinD (P24385 whole entry partner, species assumed): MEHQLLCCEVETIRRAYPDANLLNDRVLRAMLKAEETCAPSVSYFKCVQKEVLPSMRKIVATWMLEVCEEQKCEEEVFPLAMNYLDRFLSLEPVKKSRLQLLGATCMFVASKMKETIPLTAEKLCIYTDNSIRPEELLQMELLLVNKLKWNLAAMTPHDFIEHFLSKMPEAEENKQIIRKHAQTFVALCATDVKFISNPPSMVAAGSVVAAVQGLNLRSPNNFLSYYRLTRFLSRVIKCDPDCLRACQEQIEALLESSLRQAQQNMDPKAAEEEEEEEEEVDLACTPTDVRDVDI
T3 sequence (P12931 whole entry, species assumed): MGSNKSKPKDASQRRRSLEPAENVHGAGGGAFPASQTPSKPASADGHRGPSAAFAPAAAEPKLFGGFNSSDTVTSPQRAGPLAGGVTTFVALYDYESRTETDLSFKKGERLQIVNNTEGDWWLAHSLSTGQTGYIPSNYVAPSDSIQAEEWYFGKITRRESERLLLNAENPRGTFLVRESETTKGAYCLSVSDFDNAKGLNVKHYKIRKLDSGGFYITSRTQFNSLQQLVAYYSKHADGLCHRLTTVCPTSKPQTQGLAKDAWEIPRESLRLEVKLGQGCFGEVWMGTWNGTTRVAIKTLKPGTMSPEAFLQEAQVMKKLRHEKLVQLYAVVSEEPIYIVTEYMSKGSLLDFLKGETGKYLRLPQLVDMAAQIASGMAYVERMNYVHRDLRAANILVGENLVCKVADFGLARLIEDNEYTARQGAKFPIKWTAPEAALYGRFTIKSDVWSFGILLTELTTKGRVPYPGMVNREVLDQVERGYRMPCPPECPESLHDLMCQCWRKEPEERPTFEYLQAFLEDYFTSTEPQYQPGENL
T2 sequence (P11362 478-767 limits assumed): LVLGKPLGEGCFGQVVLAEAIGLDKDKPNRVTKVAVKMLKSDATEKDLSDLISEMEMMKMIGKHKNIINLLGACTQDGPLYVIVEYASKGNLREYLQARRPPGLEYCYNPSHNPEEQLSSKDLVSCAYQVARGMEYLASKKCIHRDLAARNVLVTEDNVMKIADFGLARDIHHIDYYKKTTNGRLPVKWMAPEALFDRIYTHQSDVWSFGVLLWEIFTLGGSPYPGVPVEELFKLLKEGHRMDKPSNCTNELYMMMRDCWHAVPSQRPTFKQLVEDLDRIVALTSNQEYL
T1 sequence (P05622 599-961 limits assumed): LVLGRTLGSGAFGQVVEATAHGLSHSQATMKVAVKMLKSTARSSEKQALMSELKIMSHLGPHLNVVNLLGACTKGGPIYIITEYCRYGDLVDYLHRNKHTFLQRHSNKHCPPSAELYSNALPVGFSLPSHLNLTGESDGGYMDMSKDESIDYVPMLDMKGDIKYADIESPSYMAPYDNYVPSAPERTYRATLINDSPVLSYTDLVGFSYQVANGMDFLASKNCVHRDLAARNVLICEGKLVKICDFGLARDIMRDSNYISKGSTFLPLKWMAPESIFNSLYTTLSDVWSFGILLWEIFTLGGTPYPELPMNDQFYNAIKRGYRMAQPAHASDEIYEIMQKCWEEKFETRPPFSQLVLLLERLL
Chain of cdk1/cyclinB (P06493 whole entry, species assumed): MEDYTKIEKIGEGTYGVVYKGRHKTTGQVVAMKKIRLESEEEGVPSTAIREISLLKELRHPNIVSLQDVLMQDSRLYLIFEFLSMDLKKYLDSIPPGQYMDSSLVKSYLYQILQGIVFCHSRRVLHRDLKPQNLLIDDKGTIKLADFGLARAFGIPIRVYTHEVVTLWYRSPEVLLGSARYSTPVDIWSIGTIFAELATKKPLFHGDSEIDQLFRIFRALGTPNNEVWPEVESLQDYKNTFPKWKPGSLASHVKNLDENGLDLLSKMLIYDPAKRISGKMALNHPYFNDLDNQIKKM
Chain of cdk1/cyclinB (P14635 whole entry partner, species assumed): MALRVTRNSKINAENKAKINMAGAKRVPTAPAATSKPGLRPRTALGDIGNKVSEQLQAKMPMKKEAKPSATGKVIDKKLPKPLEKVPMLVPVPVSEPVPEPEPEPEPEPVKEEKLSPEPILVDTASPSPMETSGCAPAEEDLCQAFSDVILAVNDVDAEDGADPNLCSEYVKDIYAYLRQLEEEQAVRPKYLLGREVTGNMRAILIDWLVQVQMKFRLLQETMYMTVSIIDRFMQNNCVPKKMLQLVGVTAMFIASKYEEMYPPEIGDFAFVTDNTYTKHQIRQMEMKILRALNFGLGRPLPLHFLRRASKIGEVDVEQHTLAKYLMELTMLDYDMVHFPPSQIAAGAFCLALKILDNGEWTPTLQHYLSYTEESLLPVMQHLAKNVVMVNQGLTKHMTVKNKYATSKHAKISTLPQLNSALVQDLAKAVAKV
T4 sequence (P06213 1023-1298 limits assumed, species assumed): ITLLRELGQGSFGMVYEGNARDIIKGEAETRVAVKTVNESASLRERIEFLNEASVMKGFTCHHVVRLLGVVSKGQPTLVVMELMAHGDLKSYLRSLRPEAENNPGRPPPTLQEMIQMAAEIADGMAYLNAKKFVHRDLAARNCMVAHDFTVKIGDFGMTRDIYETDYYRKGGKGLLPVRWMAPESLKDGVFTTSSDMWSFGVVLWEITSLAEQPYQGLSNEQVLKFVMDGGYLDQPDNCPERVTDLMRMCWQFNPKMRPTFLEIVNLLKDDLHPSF

SMILES | IC50 (cdk2/cyclinA) [µM] | IC50 [1] [µM] | IC50 (cdk4/cyclinD) [µM] | IC50 (cdk1/cyclinB) [µM] | IC50 (cdk2/cyclinE) [µM] | IC50 [2] [µM] | IC50 (c-Src) [µM] | IC50 (insulin receptor (INSr)) [µM] | inhibition of proliferation of human tumor cell lines (human tumor cell lines) | inhibition of cdk2 (cdk2) | inhibition of breast and lung cancer cells [3] | inhibition of cdk4 (cdk4)
CCn1c(=O)ccc2cnc(Nc3ccccc3)cc21 [Example W, 1-ethyl-7-phenylamino-1H-[1,6]naphthyridin-2-one] | 0.88 | > 50 | 4.2 | 1.9 | 1.1 | 17 | > 50 | – | – | – | – | –
CCn1c(=O)ccc2cnc(Nc3ccc(OC)cc3)cc21 [Example X, 1-ethyl-7-(4-methoxyphenylamino)-1H-[1,6]naphthyridin-2-one] | 0.83 | 5 to 50 | 2.6 | 1.5 | 1.3 | 10.4 | > 50 | – | – | – | – | –
CN(C)c1cc2c(cn1)cc(-c1c(Cl)cccc1Cl)c(=O)n2C [Example C, 3-(2,6-dichlorophenyl)-7-dimethylamino-1-methyl-1H -[1,6]naphthyridin-2-one] | – | – | – | – | – | – | > 50 | > 50 | – | – | – | –
CCn1c(=O)ccc2cnc(Nc3ccc(N4CCN(C)CC4)cc3)cc21 [Example Y, 1-ethyl-7-[4-(4-methylpiperazin-1-yl)phenylamino]-1H-[1,6]naphthyridin-2-one] | 3.5 | 5.6 | 0.35 | 7.4 | 5.8 | 1.4 | 11.4 | – | – | – | – | –
CCn1c(=O)ccc2cnc(Nc3ccc(N4CCCCC4)cc3)cc21 [Example AA, 1-ethyl-7-(4-(piperidin-1-yl)phenylamino)-1H -[1,6]naphthyridin-2-one] | – | > 50 | 1.5 | – | 5 | 12.4 | < 50 | – | – | – | – | –
CCn1c(=O)ccc2cnc(Nc3ccc(N4CCOCC4)cc3)cc21 [Example Z, 1-ethyl-7-(4-(morpholin-4-yl)phenylamino)-1H -[1,6]naphthyridin-2-one] | 1.4 | > 50 | 1.35 | 4 | 3 | 5.7 | 31 | – | – | – | – | –
Cn1cnc2c(NCc3ccccc3)nc(NCCO)nc21 [Olomoucine, 2-(hydroxyethylamine)-6-benzylamine-9-methylpurine] | – | – | – | – | – | – | – | – | shown to inhibit proliferation of approximately 60 different human tumor cell lines | potent inhibitor of cdk2 and cdk5 | – | –
CN1CC[C@H](c2c(O)cc(O)c3c(=O)cc(-c4ccccc4Cl)oc23)[C@H](O)C1 [flavopiridol] | – | – | – | – | – | – | – | – | – | shown to inhibit cdk2 and cdk4 | potent inhibitor of several types of breast and lung cancer cells | shown to inhibit cdk2 and cdk4
